Results taken from patent US6303619A, “Meta-substituted acidic 8-phenylxanthine antagonists of A3 human adenosine receptors” (priority 1998, dated 2001).

Assays:
[1] = molecular target: T1, human A2B adenosine receptor (Homo sapiens, UniProt P29275); test: competition binding, recombinant human A2B adenosine receptor; conditions: A3 versus A2B
T1 construct: expressed in transfected cells; host or cells: COS7 cells
T1 sequence (P29275 1-332): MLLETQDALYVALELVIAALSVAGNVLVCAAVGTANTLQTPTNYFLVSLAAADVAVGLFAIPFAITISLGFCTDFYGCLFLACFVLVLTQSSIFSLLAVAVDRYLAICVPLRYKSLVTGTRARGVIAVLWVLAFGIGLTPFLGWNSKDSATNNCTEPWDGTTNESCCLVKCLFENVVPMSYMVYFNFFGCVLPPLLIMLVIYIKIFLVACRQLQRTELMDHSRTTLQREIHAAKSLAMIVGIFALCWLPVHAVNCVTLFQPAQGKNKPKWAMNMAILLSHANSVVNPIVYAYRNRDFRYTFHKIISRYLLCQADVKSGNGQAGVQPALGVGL
Method: Monolayer cell culture of transfected COS7 cells were dissociated with 1 mM EDTA in phosphate buffered saline and resuspended in 5 mM Tris, pH7.6/10 mM MgCl2. The cells were subjected to freeze-thaw lysis and the suspension was homogenized in a glass dounce homogenizer. The membranes were pelleted, resuspended in binding buffer, 50 mM Tris pH 7.6/10 mM MgCl2 and incubated with adenosine deaminase before the binding assay. The binding assay was performed by incubating 50-100 Fg of membranes with increasing concentrations of radiolabeled adenosine agonists. Bound ligand was separated from free ligand by filtration on a SKATRON CELL […] equipped with a receptor binding filtermat. Bound radioactivity was measured by scintillation counting. Substances which bind to or enhance binding to expressed human adenosine receptors in COS and CHO cells can be identified in competition binding assays with radiolabeled adenosine or xanthine analogs. […] Membranes were prepared from transiently transfected COS7 cells 48 h after transfection or from G418-selected stably transfected CHO or HEK 293 cells. […] Protein concentration was determined by tie method of Bradford ((1976) Anal. Biochem. 72: 248-250). […] Bound radioactivity was measured by scintillation counting. Non-specific binding was measured on membranes prepared from non-transfected COS7 cells.

[2] = molecular target: T2, human A2A adenosine receptor (Homo sapiens, UniProt P29274); test: competition binding, recombinant human A2A adenosine receptor; conditions: A3 versus A2A
T2 construct: expressed in transfected cells; host or cells: COS7 cells
T2 sequence (P29274 whole entry): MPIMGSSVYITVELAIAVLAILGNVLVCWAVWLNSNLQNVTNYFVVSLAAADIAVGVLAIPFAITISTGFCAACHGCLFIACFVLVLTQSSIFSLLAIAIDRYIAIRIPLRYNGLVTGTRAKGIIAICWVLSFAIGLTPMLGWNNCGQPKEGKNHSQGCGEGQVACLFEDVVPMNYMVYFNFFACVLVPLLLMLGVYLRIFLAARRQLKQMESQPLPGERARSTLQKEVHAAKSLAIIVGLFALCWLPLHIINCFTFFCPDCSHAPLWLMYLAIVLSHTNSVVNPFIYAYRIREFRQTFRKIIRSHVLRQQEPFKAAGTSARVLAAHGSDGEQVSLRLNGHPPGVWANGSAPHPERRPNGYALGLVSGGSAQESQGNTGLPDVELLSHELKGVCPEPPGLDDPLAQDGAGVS
Method: Monolayer cell culture of transfected COS7 cells were dissociated with 1 mM EDTA in phosphate buffered saline and resuspended in 5 mM Tris, pH7.6/10 mM MgCl2. The cells were subjected to freeze-thaw lysis and the suspension was homogenized in a glass dounce homogenizer. The membranes were pelleted, resuspended in binding buffer, 50 mM Tris pH 7.6/10 mM MgCl2 and incubated with adenosine deaminase before the binding assay. The binding assay was performed by incubating 50-100 Fg of membranes with increasing concentrations of radiolabeled adenosine agonists. Bound ligand was separated from free ligand by filtration on a SKATRON CELL […] equipped with a receptor binding filtermat. Bound radioactivity was measured by scintillation counting. Substances which bind to or enhance binding to expressed human adenosine receptors in COS and CHO cells can be identified in competition binding assays with radiolabeled adenosine or xanthine analogs. […] Protein concentration was determined by tie method of Bradford ((1976) Anal. Biochem. 72: 248-250). […] Bound radioactivity was measured by scintillation counting in READY SAFE SCINTILLATION COCKTAIL (BECKMAN). […] Non-specific binding was determined in the presence of 100 FM CPA. Bound radioactivity was measured by scintillation counting in READY SAFE LIQUID SCINTILLATION COCKTAIL (BECKMAN).

- fold selectivity for A3 compared to human A2B [1]: 70 fold
- fold selectivity for A3 compared to human A2A [2]: 18 fold
Compound: CCCn1c(=O)c2[nH]c(-c3cccc(C=CC(=O)O)c3)nc2n(CCC)c1=O [BW-3911]
